Experimental data reported in US6525058B1, “Pharmaceutical composition for oral use” (Yamanouchi Pharmaceutical Co., LTD, priority 1999, dated 2003).
Where a name gives a salt, the structure may show the parent alone.

Test: Stability of gantofiban citrate per se and when compounded with common fillers, binders and disintegrating agents
Assay type: physicochemical

Stability in a preparation containing it (compounded with fillers, binders and disintegrating agents (lactose, D-mannitol, finely crystalline cellulose, corn starch etc.)): decomposed with a lapse of time
Stability of the substance per se (gantofiban citrate alone): stable substance
Compound: CCOC(=O)CN1CCN(C[C@@H]2CN(c3ccc(C(N)=NC(=O)OC)cc3)C(=O)O2)CC1 [gantofiban citrate, 1-ethyl methylester 4-[[(5R)-3-[p-(carboxyamidino)phenyl]-2-oxo-5-oxazolidinyl]methyl]-1-piperazineacetate]
